Reference: patent US9102614B2, “Naphth-2-ylacetic acid derivatives to treat AIDS” (Gilead Sciences, Inc., priority 2010, dated 2015)

The compounds below were run on HIV-IIIb (assay: Test A: Antiviral Assays in MT4 Cells). Settings: Human immunodeficiency virus 1, IIIB, MT4, 120 h, MT-4 cells infected with HIV-IIIb (0.004 m.o.i.), 5 days of incubation, CellTiter-Glo chemiluminescence readout; read-out: EC50.
Assay type: cell-based
Protocol: Test A: Antiviral Assays in MT4 Cells
For the antiviral assay utilizing MT-4 cells, 0.4 μL of […] test concentration of 3-fold serially diluted compound in DMSO was added to 40 μL of cell growth medium (RPMI 1640, 10% FBS, 1% penicillin/Streptomycin, 1% L-Glutamine, 1% HEPES) in each well of 384-well assay plates (10 concentrations) in quadruplicate.
1 mL aliquots of 2×10e6 MT-4 cells are pre-infected for 1 and 3 hrs respectively, @37° C. with 25 μL (MT4) or of either cell growth medium (mock-infected) or a fresh 1:250 dilution of an HIV-IIIb concentrated ABI stock (0.004 m.o.i. for MT4 cells). Infected and uninfected cells are diluted in cell growth medium and 35 uL of 2000 (for MT4) cells is added to each well of the assay plates.
Assay plates were then incubated in a 37° C. incubator. After 5 days of incubation, 25 μl of 2× concentrated CellTiter-Glo™ Reagent (catalog #G7573, Promega Biosciences, Inc., Madison, Wis.) was added to each well of the assay plate. Cell lysis was carried out by incubating at room temperature for 2-3 min and then chemiluminescence was read using the Envision reader (PerkinElmer).
With `Cc1cc2ccc(C#CC3(O)CCN(C)CC3)cc2c(-c2ccc(Cl)cc2)c1C(OC(C)(C)C)C(=O)O` (centres unmarked) [Compound 79, 2-tert-Butoxy-2-(1-(4-chlorophenyl)-7-((4-hydroxy-1-methylpiperidin-4-yl)ethynyl)-3-methylnaphthalen-2-yl)acetic acid] the EC50 was 89 nM. `Cc1cc2cc(Cl)ccc2c(-c2ccc3c4c(ccnc24)CCO3)c1[C@@H](OC(C)(C)C)C(=O)O` (atropisomer, axis not shown) [Compound 177] was tested, and the EC50 was 37000 nM. `Cc1c([C@H](OC(C)(C)C)C(=O)O)c(-c2ccc3c4c(ccnc24)CCO3)c2ccccc2c1F` (atropisomer, axis not shown) [Compound 178] showed an EC50 of 34000 nM. `Cc1c(C(OC(C)(C)C)C(=O)O)c(-c2ccc(Cl)cc2)c2ccccc2c1CN(C)C` (centres unmarked) [Compound 133, 2-tert-Butoxy-2-(1-(4-chlorophenyl)-4-((dimethylamino)methyl)-3-methylnaphthalen-2-yl)acetic acid] was tested, and the EC50 was 123 nM. Work on `Cc1cc2ccc(C#Cc3cncn3C)cc2c(-c2ccc(Cl)cc2)c1C(OC(C)(C)C)C(=O)O` (centres unmarked) [Compound 81, 2-tert-Butoxy-2-(1-(4-chlorophenyl)-3-methyl-7-((1-methyl-1H-imidazol-5-yl)ethynyl)naphthalen-2-yl)acetic acid] yielded an EC50 of 150 nM. `Cc1c(C(OC(C)(C)C)C(=O)O)c(-c2ccc(Cl)cc2)c2ccccc2c1-c1cccnc1` (centres unmarked) [Compound 138, 2-tert-butoxy-2-(1-(4-chlorophenyl)-3-methyl-4-(pyridin-3-yl)naphthalen-2-yl)acetic acid] showed an EC50 of 40 nM. For `Cc1cc2ccc(C#CC3(O)CCCCC3)cc2c(-c2ccc(Cl)cc2)c1C(OC(C)(C)C)C(=O)O` (centres unmarked) [Compound 83, 2-tert-Butoxy-2-(1-(4-chlorophenyl)-7-((1-hydroxycyclohexyl)ethynyl)-3-methylnaphthalen-2-yl)acetic acid], the EC50 was 78 nM. With `Cc1cc2c(-c3ccc(Cl)cc3)cccc2c(-c2ccc(Cl)cc2)c1C(OC(C)(C)C)C(=O)O` (centres unmarked) [Compound 38, 2-(1,5-Bis(4-chlorophenyl)-3-methylnaphthalen-2-yl)-2-tert-butoxyacetic acid] the EC50 was 3400 nM. For `Cc1cc2ccc(CCC3CCCC3)cc2c(-c2ccc(Cl)cc2)c1C(OC(C)(C)C)C(=O)O` (centres unmarked) [Compound 90, 2-tert-Butoxy-2-(1-(4-chlorophenyl)-7-(2-cyclopentylethyl)-3-methylnaphthalen-2-yl)acetic acid], the EC50 was 31000 nM. Work on `Cc1cc2ccccc2c(C2=CCC(C)CC2)c1[C@H](OC(C)(C)C)C(=O)O` (stereo partly drawn) [Compound 13, (2S)-2-tert-Butoxy-2-(3-methyl-1-(4-methylcyclohex-1-enyl)naphthalen-2-yl)acetic acid] yielded an EC50 of 10 nM. In the case of `Cc1cc2c(C)cccc2c(-c2ccc(Cl)cc2)c1C(OC(C)(C)C)C(=O)O` (centres unmarked) [Compound 40, 2-tert-Butoxy-2-(1-(4-chlorophenyl)-3,5-dimethylnaphthalen-2-yl)acetic acid], the EC50 is reported as 210 nM. `Cc1cc2c(Cl)cc(F)cc2c(-c2ccc3c4c(ccnc24)CCO3)c1[C@H](OC(C)(C)C)C(=O)O` [Compound 111, (2S)-2-tert-Butoxy-2-(5-chloro-1-(2,3-dihydropyrano[4,3,2-de]quinolin-7-yl)-7-fluoro-3-methylnaphthalen-2-yl)acetic acid] was tested, and the EC50 was 1100 nM. For `Cc1cc2c(C#N)c(C)ccc2c(-c2ccc3c4c(ccnc24)CCO3)c1[C@H](OC(C)(C)C)C(=O)O` (atropisomer, axis not shown) [Compound 118, (S)-2-tert-Butoxy-2-((R)-5-cyano-1-(2,3-dihydropyrano[4,3,2-de]quinolin-7-yl)-3,6-dimethylnaphthalen-2-yl)acetic acid], the EC50 was 36 nM. For `Cc1cc2ccc(CCC3CC3)cc2c(-c2ccc(Cl)cc2)c1C(OC(C)(C)C)C(=O)O` (centres unmarked) [Compound 92, 2-tert-Butoxy-2-(1-(4-chlorophenyl)-7-(2-cyclopropylethyl)-3-methylnaphthalen-2-yl)acetic acid], the EC50 was 7100 nM. Work on `Cc1ccc2ccc(F)c(-c3c([C@H](OC(C)(C)C)C(=O)O)c(C)cc4ccccc34)c2n1` [Compound 17, (S)-2-(tert-Butoxy)-2-((S)-1-(7-fluoro-2-methylquinolin-8-yl)-3-methylnaphthalen-2-yl)acetic acid] yielded an EC50 of 7700 nM. Compound `Cc1cc2cc(-c3cncnc3)ccc2c(-c2ccc(Cl)cc2)c1[C@H](OC(C)(C)C)C(=O)O` [Compound 55, (S)-2-tert-Butoxy-2-(1-(4-chlorophenyl)-3-methyl-6-(pyrimidin-5-yl)naphthalen-2-yl)acetic acid] has an EC50 of 54 nM. `COc1cccc2c(-c3ccc(Cl)cc3)c(C(OC(C)(C)C)C(=O)O)c(C)cc12` (centres unmarked) [Compound 34, tert-Butoxy-[1-(4-chloro-phenyl)-5-methoxy-3-methyl-naphthalen-2-yl]-acetic acid] showed an EC50 of 350 nM. `Cc1cc2cc(C3CC3)c(F)cc2c(-c2ccc3c4c(ccnc24)CCO3)c1[C@H](OC(C)(C)C)C(=O)O` (atropisomer, axis not shown) [Compound 170] showed an EC50 of 29000 nM. In the case of `CNC(=O)c1cc2cc(C)c([C@H](OC(C)(C)C)C(=O)O)c(-c3ccc4c5c(ccnc35)CCO4)c2cc1F` (atropisomer, axis not shown) [Compound 166], the EC50 is reported as 16000 nM. `CC(=O)NC(C)(C)C#Cc1ccc2cc(C)c(C(OC(C)(C)C)C(=O)O)c(-c3ccc(Cl)cc3)c2c1` (centres unmarked) [Compound 96, 2-(7-(3-Acetamido-3-methylbut-1-ynyl)-1-(4-chlorophenyl)-3-methylnaphthalen-2-yl)-2-tert-butoxyacetic acid] was tested, and the EC50 was 88 nM.

Same assay, conditions: MT-4 cells infected with HIV-IIIb (0.004 m.o.i.), 5 days of incubation, CellTiter-Glo chemiluminescence readout; read-out: EC50
`Cc1cc2c(F)c(C(F)F)ccc2c(-c2ccc3c4c(ccnc24)CCO3)c1[C@H](OC(C)(C)C)C(=O)O` [Compound 121, (S)-2-tert-Butoxy-2-((R)-6-(difluoromethyl)-1-(2,3-dihydropyrano[4,3,2-de]quinolin-7-yl)-5-fluoro-3-methylnaphthalen-2-yl)acetic acid] showed an EC50 of 14 nM. Compound `Cc1cc2cc(C)c([C@H](OC(C)(C)C)C(=O)O)c(-c3ccc4c5c(ccnc35)CCO4)c2cc1F` [Compound 112, (S)-2-tert-Butoxy-2-((R)-1-(2,3-dihydropyrano[4,3,2-de]quinolin-7-yl)-7-fluoro-3,6-dimethylnaphthalen-2-yl)acetic acid] has an EC50 of 9 nM. Compound `CCC(C)(C)O[C@H](C(=O)O)c1c(C)cc2ccccc2c1-c1ccc2c3c(ccnc13)CCO2` [Compound 185, (S)-2-((R)-1-(2,3-dihydropyrano[4,3,2-de]quinolin-7-yl)-3-methylnaphthalen-2-yl)-2-(tert-pentyloxy)acetic acid] has an EC50 of 24 nM. With `Cc1cc2ccccc2c(-c2cc(F)cc3cccnc23)c1[C@H](OC(C)(C)C)C(=O)O` [Compound 158] the EC50 was 35000 nM. With `Cc1cc2cc(C(F)F)c(F)cc2c(-c2ccc3c4c(ccnc24)CCO3)c1[C@H](OC(C)(C)C)C(=O)O` [Compound 103, (S)-2-tert-Butoxy-2-((R)-6-(difluoromethyl)-1-(2,3-dihydropyrano[4,3,2-de]quinolin-7-yl)-7-fluoro-3-methylnaphthalen-2-yl)acetic acid] the EC50 was 26 nM. With `Cc1cc2cc(C(C)C)c(F)cc2c(-c2ccc3c4c(ccnc24)CCO3)c1[C@H](OC(C)(C)C)C(=O)O` [Compound 102, (S)-2-tert-Butoxy-2-((R)-1-(2,3-dihydropyrano[4,3,2-de]quinolin-7-yl)-7-fluoro-6-isopropyl-3-methylnaphthalen-2-yl)acetic acid] the EC50 was 37 nM. `Cc1cc2cc(C)c([C@H](OC(C)(C)C)C(=O)O)c(-c3ccc4c5c(ccnc35)CCO4)c2cc1F` (atropisomer, axis not shown) [Compound 156] was tested, and the EC50 was 7300 nM. For `Cc1cc2cc(C3CC3)c(F)cc2c(-c2ccc3c4c(ccnc24)CCO3)c1[C@H](OC(C)(C)C)C(=O)O` [Compound 105, (S)-2-tert-Butoxy-2-((R)-6-cyclopropyl-1-(2,3-dihydropyrano[4,3,2de]quinolin-7-yl)-7-fluoro-3-methylnaphthalen-2-yl)acetic acid], the EC50 was 43 nM. For `Cc1cc2c(C)c(C)ccc2c(-c2ccc3c4c(ccnc24)CCO3)c1[C@H](OC(C)(C)C)C(=O)O` [Compound 117, (S)-2-tert-Butoxy-2-((R)-1-(2,3-dihydropyrano[4,3,2-de]quinolin-7-yl)-3,5,6-trimethylnaphthalen-2-yl)acetic acid], the EC50 was 11 nM. For `Cc1cc2c(Cl)c(C)ccc2c(-c2ccc3c4c(ccnc24)CCO3)c1[C@H](OC(C)(C)C)C(=O)O` [Compound 116, (S)-2-tert-Butoxy-2-((R)-5-chloro-1-(2,3-dihydropyrano[4,3,2-de]quinolin-7-yl)-3,6-dimethylnaphthalen-2-yl)acetic acid], the EC50 was 16 nM. Compound `Cc1cc2c(F)c(Cl)ccc2c(-c2ccc3c4c(ccnc24)CCO3)c1[C@H](OC(C)(C)C)C(=O)O` [Compound 115, (S)-2-tert-Butoxy-2-((R)-6-chloro-1-(2,3-dihydropyrano[4,3,2-de]quinolin-7-yl)-5-fluoro-3-methylnaphthalen-2-yl)acetic acid] has an EC50 of 37 nM. Compound `Cc1cc2c(C(N)=O)cc(F)cc2c(-c2ccc3c4c(ccnc24)CCO3)c1[C@H](OC(C)(C)C)C(=O)O` [Compound 113B, (S)-2-tert-Butoxy-2-((R)-5-carbamoyl-1-(2,3-dihydropyrano[4,3,2-de]quinolin-7-yl)-7-fluoro-3-methylnaphthalen-2-yl)acetic acid] has an EC50 of 460 nM.
